In one series the target is IN-LEDGF/p75 binding (Human immunodeficiency virus type 1 group M subtype B, UniProt P12497). The series can be described thus: HTRF-based inhibition assay for LEDGF/p75 binding to IN. Format: biochemical, HIV-1. As to the method: We examined the ability of STP0404 to inhibit IN binding to LEDGF/p75 using another HTRF-based assay. Briefly, 10 nM His-tagged IN was pre-incubated in a binding buffer (150 mm NaCl, 2 mm MgCl2, 0.1% Nonidet P-40, 1 mg/ml BSA, 25 mm Tris, pH 7.4) with the compound for 30 min at room temperature, and then 10 nM FLAG-tagged LEDGF/p75 was added to the reaction. This was followed by addition of 6.6 nM anti-His6-XL665 and 0.45 nM anti-FLAG-EuCryptate antibodies (Cisbio, Inc., Bedford, MA).

For series [1], the system named is Ral-resistant (8070_2) clinical isolate. Put plainly: In vitro anti-viral assay in human PBMCs (RT activity readout). Format: cell-based, HIV-1. As to the method:
(§1) For the assay with human PBMCs, PHA stimulated cells from at least two pooled healthy were infected with HIV-1 strains in 96-well plates. Test drug dilutions, which were prepared at a 2X concentration in microtiter tubes and 100 μL of each concentration (nine total concentrations), were placed in appropriate wells using the standard format. 50 μL of a predetermined dilution of virus stock was placed in each test well (final MOI ≅ 0.1). The PBMC cultures were maintained for 7 days following infection at 37 °C, 5% CO2. After this period, cell-free supernatant samples were collected for analysis of reverse transcriptase (RT) activity. All assays were conducted in triplicates. For RT assay, a microtiter plate-based reverse transcriptase (RT) reaction was utilized (Buckheit et al., AIDS Research and Human Retroviruses 7:295–302, 1991). Tritiated thymidine triphosphate (^3H-TTP, 80 Ci/mmol, NEN) is received in 1:1 dH2O: Ethanol at 1 mCi/mL. Poly rA:oligo dT template:primer (GE Healthcare) was prepared as a stock solution by combining 150 μL poly rA (20 mg/mL) with 0.5 mL oligo dT (20 units/mL) and 5.35 mL sterile dH2O followed by aliquoting (1.0 mL) and storage at—20°C. The RT reaction buffer was prepared fresh on a daily basis and consisted of 125 μL 1.0 M EGTA, 125 μL dH2O, 125 μL 20% Triton X100, 50 μL 1.0 M Tris (pH 7.4), 50 μL 1.0 M DTT, and 40 μL 1.0 M MgCl2. The final reaction mixture was prepared by combining 1 part ^3H-TTP, 4 parts dH2O, 2.5 parts poly rA:oligo dT stock and 2.5 parts reaction buffer. Ten microliters of this reaction mixture were placed in a round bottom microtiter plate and 15 μL of virus containing supernatant is added and mixed. The plate was incubated at 37°C for 60 mins. Following incubation, the reaction volume was spotted onto DE81 filter-mats (Wallac), washed 5 times for 5 mins each in a 5% sodium phosphate buffer or 2X SSC (Life Technologies). Next they were washed 2 times for 1 min each in distilled water, 2 times for 1 min each in 70% ethanol, and then dried. Incorporated radioactivity (counts per min, CPM) was quantified using standard liquid scintillation techniques. These PBMC analysis was conducted by fee to service through Southern Research Institute (Frederick, MD, USA). The IC50 were analyzed using GraphPad Prism (Version 9) and presented as means ± S.D. of the triplicates.

Series [2] deals with Ral-resistant (4736_2) clinical isolate. The series is described as above. Format: cell-based, HIV-1. The conditions noted are these: human PBMCs, Ral-resistant (4736_2). As to the method: as §1
The test system of series [3] is Ral-resistant (1556_1) clinical isolate. The series is described as above. Format: cell-based, HIV-1. The method, then:
as §1

Series [4] concerns Ral-resistant (4736_4) clinical isolate. The description is as above. Format: cell-based, HIV-1. The note with it: human PBMCs, Ral-resistant (4736_4). As to the method:
as §1

The subject of series [5] is Ral-resistant (8070_1) clinical isolate. The description is as above. Format: cell-based, HIV-1. The method, then:
as §1

Series [6] can be described thus: Hepatocyte stability determination. The conditions noted are these: monkey and human hepatocytes. Format: in vitro ADME. The method, then:
Incubation was conducted in 96-well cell culture plate format. The plates were labeled as T0, T15, T30, T60, T90, T0-MC, T90-MC and Blank, respectively. All plates were pre-warmed for 10 to 20 mins at 37±1°C in an incubator of 5% CO2 and saturated humidity. The vials of cryopreserved SD rat, beagle dog, cynomolgus monkey and human hepatocyte were removed from the liquid nitrogen container and immediately immersed in a water bath (the setting temperature was 37°C) for approximately 90 secs to allow the ice pellets melted. The melted ice pellets were transferred into pre-warmed 40 mL of Thawing Medium tubes mixed well by gently inverting the tubes then centrifuged at 100 ×g for 5 mins at room temperature. The supernatants were discarded and cell pellets were re-suspended by adding appropriate volumes of pre-warmed WEM. The cells viability of each species was determined using Trypan Blue exclusion. The viabilities of rat, dog, cynomolgus and human hepatocytes were 89.0%, 94.3%, 88.0% and 91.8%, respectively. Cells were finally diluted to 0.625×10^6 cells/mL with pre-warmed WEM. At each corresponding time point, the sample reactions were stopped by adding 150 μL of acetonitrile containing 200 ng/mL tolbutamide and 200 ng/mL labetalol as internal standards. All sample plates were thoroughly mixed and centrifuged at 3220 ×g for 20 mins. […]

Series [7] concerns the target T1, IN-RNA binding (His6 tagged IN, HIV-1 TAR RNA) (Human immunodeficiency virus type 1 group M subtype B, UniProt P12497).
T1 construct: incubated with 100 nM His6 tagged IN
Put plainly: Alpha Screen inhibition assay for IN binding to RNA. Format: biochemical. The method, then: Primary antiviral activity of ALLINIs was observed during virion maturation, where they inhibit IN-RNA interactions, we examined the ability of STP0404 to inhibit recombinant IN binding to synthetic TAR RNA using Alpha screen based assay. Briefly, different concentrations of STP0404 were incubated with 100 nM His6 tagged IN in buffer containing 100 mM NaCl, 1 mM MgCl2, 1 mM DTT, 1mg/mL BSA, 25 mM Tris, pH 7.4 at 4°C for 2 hrs. This mixture was then added to the nickel acceptor beads while biotinylated-TAR RNA was added to the streptavidin donor beads. After 2-hrs incubation at 4°C, the RNA mixture was added to the IN-drug mixture and the reading was taken after 1 hr incubation at 4°C by PerkinElmer Life Sciences Enspire multimode plate reader. The IC50 values were calculated by OriginLab software.

[8] abbreviates: Human immunodeficiency virus 1, PBMC.
The mark [9] stands for this setting: Human immunodeficiency virus 1, PBMC, read-out: IC50.

What is called IC50 is the concentration needed to halve the response being measured.

SMILES strings stand for the structures.

`Cc1nc2c(c(C)c(C)n2Cc2cnn(C)c2)c(-c2ccc(Cl)cc2)c1[C@H](OC(C)(C)C)C(=O)O` [STP0404]: the IC50 is 190 ± 70 nM on IN-LEDGF/p75 binding; 0.23 ± 0.39 nM in series [1] (setting [8]); 0.03 ± 0.04 nM in series [2] (setting [9]); 0.08 ± 0.04 nM in series [3] (setting [8]); 0.04 ± 0.06 nM in series [4] (setting [9]); 0.06 ± 0.07 nM in series [5] (setting [8]). The molecule also gave a half-maximal inhibitory concentration (IC50) in series [7] of 20 ± 3 nM. For the same molecule, the “TI (TC50 / IC50)” value in series [1] is listed as >43,400; in series [2], >330,000; in series [3] it was >125,000; in series [4] it was >250,000; in series [5] (human PBMCs, Ral-resistant (8070_1)), >166,000. Also, the “metabolic stability in hepatocytes (in words)” value in series [6] was “much longer metabolic stability”.

(Values after paper PMC8297771 (PLoS Pathogens, 2021).)
